Measured values published in patent publication US12692238B2, “Substituted pyridazinone herbicides” (FMC CORPORATION, priority 2020, dated 2026).

How the values were obtained:
Type in all cases: in vivo
[1] = system: ryegrass, Italian (Italian ryegrass, Lolium multiflorum); test: Test A preemergence, ryegrass, Italian; conditions: 0 to 100 scale, 10 days
Description: (§1) Seeds of plant species selected from barnyardgrass (Echinochloa crus-galli), blackgrass (Alopecurus myosuroides), corn (Zea mays), foxtail, giant (giant foxtail, Setaria faberi), foxtail, green (green foxtail, Setaria viridis), goosegrass (Eleusine indica), kochia (Bassia scoparia), oat, wild (wild oat, Avena fatua), palmer amaranth (pigweed, palmer, Amaranthus palmeri), redroot pigweed (Amaranthus retroflexus), ragweed (common ragweed, Ambrosia artemisiifolia), ryegrass, Italian (Italian ryegrass, Lolium multiflorum), and soybean (Glycine max) were planted into a blend of loam soil and sand and treated preemergence with a directed soil spray using test chemicals formulated in a non-phytotoxic solvent mixture which included a surfactant.
(§2) At the same time, plants selected from these crop and weed species and also wheat (Triticum aestivum), galium (catchweed bedstraw, Galium aparine) and horseweed (Erigeron canadensis) were planted in pots containing the same blend of loam soil and sand and treated with postemergence applications of test chemicals formulated in the same manner. Plants ranged in height from 2 to 10 cm and were in the one- to two-leaf stage for the postemergence treatment. Treated plants and untreated controls were maintained in a greenhouse for 10 days, after which time all treated plants were compared to untreated controls and visually evaluated for injury. Plant response ratings, summarized in Table A, are based on a 0 to 100 scale where 0 is no effect and 100 is complete control. A dash (-) response means no test result.

[2] = system: galium (catchweed bedstraw, Galium aparine); test: Test A postemergence, galium; conditions: 10 days
Description: as §1, §2

[3] = system: ragweed (common ragweed, Ambrosia artemisiifolia); test: Test A preemergence, ragweed; conditions: 0 to 100 scale, 10 days
Description: as §1, §2

[4] = system: barnyardgrass (Echinochloa crus-galli); test: Test B flooded paddy test, barnyardgrass; conditions: 250 g ai/ha, Flood; visually evaluated after 10 to 14 days
Description: (§3) Plant species in the flooded paddy test selected from barnyardgrass (Echinochloa crus-galli), ducksalad (Heteranthera limosa), rice (Oryza sativa), and sedge, umbrella (small-flower umbrella sedge, Cyperus difformis) were grown to the 2-leaf stage for testing. At time of treatment, test pots were flooded to 3 cm above the soil surface, treated by application of test compounds directly to the paddy water, and then maintained at that water depth for the duration of the test. Treated plants and controls were maintained in a greenhouse for 10 to 14 days, after which time all species were compared to controls and visually evaluated. Plant response ratings, summarized in Table B, are based on a scale of 0 to 100 where 0 is no effect and 100 is complete control. A dash (-) response means no test result.

[5] = system: blackgrass (Alopecurus myosuroides); test: Test A postemergence, blackgrass; conditions: Postemergence, 0 to 100 scale, 10 days
Description: as §1, §2

[6] = system: sedge, umbrella (small-flower umbrella sedge, Cyperus difformis); test: Test B flooded paddy test, sedge, umbrella; conditions: 250 g ai/ha, Flood; visually evaluated after 10 to 14 days
Description: as §3

[7] = system: foxtail, green (green foxtail, Setaria viridis); test: Test A postemergence, foxtail, green; conditions: 10 days
Description: as §1, §2

[8] = system: redroot pigweed (Amaranthus retroflexus); test: Test A postemergence, redroot pigweed; conditions: 10 days
Description: as §1, §2

corn (Zea mays) = test: Test A postemergence, corn; conditions: Postemergence, 0 to 100 scale, 10 days
Description: as §1, §2

kochia (Bassia scoparia) [9] = test: Test A postemergence, kochia; conditions: 10 days
Description: as §1, §2

[10] = system: ragweed (common ragweed, Ambrosia artemisiifolia); test: Test A postemergence, ragweed; conditions: 10 days
Description: as §1, §2

[11] = system: ryegrass, Italian (Italian ryegrass, Lolium multiflorum); test: Test A postemergence, ryegrass, Italian; conditions: 10 days
Description: as §1, §2

[12] = system: ducksalad (Heteranthera limosa); test: Test B flooded paddy test, ducksalad; conditions: 250 g ai/ha, Flood; visually evaluated after 10 to 14 days
Description: as §3

[13] = system: barnyardgrass (Echinochloa crus-galli); test: Test A preemergence, barnyardgrass; conditions: 10 days
Description: as §1, §2

[14] = system: barnyardgrass (Echinochloa crus-galli); test: Test A postemergence, barnyardgrass; conditions: Postemergence, 0 to 100 scale, 10 days
Description: as §1, §2

[15] = system: foxtail, green (green foxtail, Setaria viridis); test: Test A preemergence, foxtail, green; conditions: 0 to 100 scale, 10 days
Description: as §1, §2

[16] = system: redroot pigweed (Amaranthus retroflexus); test: Test A preemergence, redroot pigweed; conditions: 0 to 100 scale, 10 days
Description: as §1, §2

[17] = system: wheat (Triticum aestivum); test: Test A postemergence, wheat; conditions: 10 days
Description: as §1, §2

kochia (Bassia scoparia) [18] = test: Test A preemergence, kochia; conditions: 0 to 100 scale, 10 days
Description: as §1, §2

rice (Oryza sativa) = test: Test B flooded paddy test, rice; conditions: 250 g ai/ha, Flood; visually evaluated after 10 to 14 days
Description: as §3

[19] = 31 g ai/ha, postemergence, 0 to 100 scale (0 no effect, 100 complete control)
[20] = Postemergence, 125 g ai/ha, 0 to 100 scale
[21] = 125 g ai/ha, 0 to 100 scale (0 no effect, 100 complete control)

SMILES | Plant response rating, Ryegrass, Italian ([1]; 31 g ai/ha) | Plant response rating, Ryegrass, Italian ([1]; 125 g ai/ha) | Plant response rating, Galium [2, 19] | Plant response rating, Galium [2, 20] | Plant response rating, Ragweed ([3]; 31 g ai/ha) | Plant response rating, Ragweed ([3]; 125 g ai/ha) | Plant response rating, Barnyardgrass (0 to 100 scale where 0 is no effect and 100 is complete control) [4] | Plant response rating, Blackgrass ([5]; 31 g ai/ha) | Plant response rating, Blackgrass ([5]; 125 g ai/ha) | Plant response rating, Sedge, Umbrella (0 to 100 scale where 0 is no effect and 100 is complete control) [6] | Plant response rating, Foxtail, Green [7, 19] | Plant response rating, Foxtail, Green [7, 20] | Plant response rating, Pigweed, Redroot [8, 19] | Plant response rating, Pigweed, Redroot [8, 20] | Plant response rating, Corn (corn (Zea mays); 31 g ai/ha) | Plant response rating, Corn (corn (Zea mays); 125 g ai/ha) | Plant response rating, Kochia (kochia (Bassia scoparia) [9]; [19]) | Plant response rating, Kochia (kochia (Bassia scoparia) [9]; [20]) | Plant response rating, Ragweed [10, 19] | Plant response rating, Ragweed [10, 20] | other results
Cc1ccc2ccc(F)cc2c1-c1c(OCOC(=O)C(C)(C)C)c(Cl)nn(C)c1=O [Compound 4] | 90 | 100 | 70 | 100 | 100 | 100 | 75 | 20 | 70 | 95 | 40 | 80 | 70 | 100 | 0 | 0 | 10 | 40 | 50 | 100 | Plant response rating, Ryegrass, Italian [11, 19]: 50; Plant response rating, Ryegrass, Italian [11, 20]: 90; Plant response rating, Ducksalad (0 to 100 scale where 0 is no effect and 100 is complete control) [12]: 95; Plant response rating, Barnyardgrass ([13]; 31 g ai/ha, 0 to 100 scale): 10; Plant response rating, Barnyardgrass [13, 21]: 100; Plant response rating, Barnyardgrass ([14]; 31 g ai/ha): 20; Plant response rating, Barnyardgrass ([14]; 125 g ai/ha): 60; Plant response rating, Foxtail, Green ([15]; 31 g ai/ha): 70; Plant response rating, Foxtail, Green ([15]; 125 g ai/ha): 100; Plant response rating, Pigweed, Redroot ([16]; 31 g ai/ha): 100; Plant response rating, Pigweed, Redroot ([16]; 125 g ai/ha): 100; Plant response rating, Wheat [17, 19]: 40; Plant response rating, Wheat [17, 20]: 70; Plant response rating, Kochia (kochia (Bassia scoparia) [18]; 31 g ai/ha): 20; Plant response rating, Kochia (kochia (Bassia scoparia) [18]; 125 g ai/ha): 100; Plant response rating, Rice (0 to 100 scale where 0 is no effect and 100 is complete control) (rice (Oryza sativa)): 35
Cc1ccc2ccccc2c1-c1c(OCOC(=O)C(C)C)c(Cl)nn(C)c1=O [Compound 6] | 20 | 70 | 70 | 90 | 10 | 80 | 10 | 0 | 40 | 75 | 0 | 60 | 60 | 100 | 0 | 0 | 10 | 60 | 70 | 80 | Plant response rating, Ryegrass, Italian [11, 19]: 50; Plant response rating, Ryegrass, Italian [11, 20]: 70; Plant response rating, Ducksalad (0 to 100 scale where 0 is no effect and 100 is complete control) [12]: 70; Plant response rating, Barnyardgrass ([13]; 31 g ai/ha, 0 to 100 scale): 0; Plant response rating, Barnyardgrass [13, 21]: 0; Plant response rating, Barnyardgrass ([14]; 31 g ai/ha): 20; Plant response rating, Barnyardgrass ([14]; 125 g ai/ha): 50; Plant response rating, Foxtail, Green ([15]; 31 g ai/ha): 0; Plant response rating, Foxtail, Green ([15]; 125 g ai/ha): 50; Plant response rating, Pigweed, Redroot ([16]; 31 g ai/ha): 90; Plant response rating, Pigweed, Redroot ([16]; 125 g ai/ha): 100; Plant response rating, Wheat [17, 19]: 0; Plant response rating, Wheat [17, 20]: 10; Plant response rating, Kochia (kochia (Bassia scoparia) [18]; 31 g ai/ha): 10; Plant response rating, Kochia (kochia (Bassia scoparia) [18]; 125 g ai/ha): 50; Plant response rating, Rice (0 to 100 scale where 0 is no effect and 100 is complete control) (rice (Oryza sativa)): 0
